Patent US20130204033A1, “ANTIPROLIFERATIVE COMPOUNDS, CONJUGATES THEREOF, METHODS THEREFOR, AND USES THEREOF” (Medarex, Inc., priority 2009, published 2013)

Key:
Assay type in all cases: cell-based, human
LNCaP = test: 3H thymidine proliferation assay, LNCaP; details: Homo sapiens, LNCaP; 3H thymidine method, 72 h incubation; read-out: EC50, LNCaP
Method: (§1) This example generally describes the procedures used to assay the antiproliferative activity of compounds of this invention or their conjugates. Human tumor cell lines were obtained from the American Type Culture Collection (ATCC), P.O. Box 1549, Manassas, Va. 20108, USA, and cultured according to instruction from the ATCC. Cells were seeded at 1.0×10^3 or 1.0×10^4 cells/well in 96-well plates for 3 h for ATP assays or ^3H thymidine assays, respectively. 1:3 serial dilutions of free (unconjugated) compounds or their conjugates were added to the wells. Plates were allowed to incubate for 24 to 72 h. The ^3H thymidine plates were pulsed with 1.0 μCi of ^3H-thymidine per well for the last 24 hours of the total incubation period, harvested, and read on a Top Count Scintillation Counter (Packard Instruments, Meriden, Conn.). ATP levels in the ATP plates were measured using the […]-GLO® Luminescent Cell Viability kit following the manufacturer's manual and read on a GLOMAX® 20/20 luminometer (both from Promega, Madison, Wis., USA). The EC50 values—the concentration at which an agent inhibits or reduces cell proliferation by 50% —were determined using PRISM™ software, version 4.0 (GraphPad Software, La Jolla, Calif., USA).
(§2) Using the ^3H thymidine or the ATP luminescence assay, or both, the activities of compounds of this invention were assayed against the following cancer cell lines: HCT-15 (colorectal cancer, multi-drug resistant (MDR)); Hep3B (liver cancer); LNCaP (prostate cancer, androgen receptor positive (AR^+)); MDA-MB-231 (breast cancer, estrogen receptor, progesterone receptor, and Her2 negative (triple negative)); A2058 (melanoma); U-87 MG (glioblastoma); NCI-H460 (NSCLC); A549 (NSCLC); HPAC (pancreatic cancer, primary); PC3 (prostate cancer, AR); BT474 (breast cancer, Her2 highly positive (Her2hi)); SKOV3 (ovarian cancer, Her2hi); 786-O (renal cancer); UO-31 (renal cancer, MDR); NCI-H740 (SCLC); DMS53 (SCLC); SK-BR3 (breast cancer, Her2hi); ZR-75 (breast cancer, estrogen receptor positive); OVCAR3 (ovarian cancer); HL-60 (APL); OVCAR8/Adr (ovarian cancer, MDR); CEM-Cl (ALL); Nomo-1 (AML); RPMI-8226 (MM)); Raji (lymphoma); SW-480 (colorectal cancer, metastatic); SW-620 (colorectal cancer); and H226 (lung cancer). (Not all compounds were assayed against all cell lines.)
(§3) Table 2 provides the data for proliferation assays using the ^3H thymidine method, with an incubation period of 72 h.

Raji [1] = test: 3H thymidine proliferation assay, Raji; details: Homo sapiens, Raji; 3H thymidine method, 72 h incubation; read-out: EC50, Raji
Method: as §1, §2, §3

DMS53 = test: ATP luminescence proliferation assay, DMS53; details: Homo sapiens, DMS-53; ATP luminescence, DMS53, 72 h incubation; read-out: EC50 DMS53 (72 h)
Method: as §1, §2
(§4) Table 3 provides the data for the ATP luminescence proliferation assays, with an incubation period of 48, 72, or 96 h, as noted.

SK-BR3 = test: ATP luminescence proliferation assay, SK-BR3; details: Homo sapiens, SK-BR-3; ATP luminescence, SK-BR3, 72 h incubation; read-out: EC50 SK-BR3 (72 h)
Method: as §1, §2, §4

BT474 = test: 3H thymidine proliferation assay, BT474; details: Homo sapiens, BT-474; 3H thymidine method, 72 h incubation; read-out: EC50, BT474
Method: as §1, §2, §3

RPMI-8226 = test: 3H thymidine proliferation assay, RPMI-8226; details: Homo sapiens, RPMI-8226; 3H thymidine method, 72 h incubation; read-out: EC50, RPMI-8226
Method: as §1, §2, §3

UO-31 = test: 3H thymidine proliferation assay, UO-31; details: Homo sapiens, UO-31; 3H thymidine method, 72 h incubation; read-out: EC50, UO-31
Method: as §1, §2, §3

HCT-15 = test: ATP luminescence proliferation assay, HCT-15; details: Homo sapiens; ATP luminescence, HCT-15, 72 h incubation; read-out: EC50 HCT-15 (72 h)
Method: as §1, §2, §4

786-O = test: 3H thymidine proliferation assay, 786-O; details: Homo sapiens, 786-0; 3H thymidine method, 72 h incubation; read-out: EC50, 786-O
Method: as §1, §2, §3

OVCAR3 = test: 3H thymidine proliferation assay, OVCAR3; details: Homo sapiens, OVCAR-3; 3H thymidine method, 72 h incubation; read-out: EC50, OVCAR3
Method: as §1, §2, §3

ZR-75 = test: ATP luminescence proliferation assay, ZR-75; details: Homo sapiens, ZR75; ATP luminescence, ZR-75, 72 h incubation; read-out: EC50 ZR-75 (72 h)
Method: as §1, §2, §4

HPAC [2] = test: ATP luminescence proliferation assay, HPAC; details: Homo sapiens, ATP luminescence, 72 h incubation, read-out: EC50 HPAC (72 h)
Method: as §1, §2, §4

U-87 MG [3] = test: ATP luminescence proliferation assay, U-87 MG; details: Homo sapiens, ATP luminescence, 72 h incubation, read-out: EC50 U-87 MG (72 h)
Method: as §1, §2, §4

Raji [4] = test: ATP luminescence proliferation assay, Raji; details: Homo sapiens, ATP luminescence, 72 h incubation, read-out: EC50 Raji (72 h)
Method: as §1, §2, §4

MDA-MB-231 = test: ATP luminescence proliferation assay, MDA-MB-231; details: Homo sapiens; ATP luminescence, MDA-MB-231, 72 h incubation; read-out: EC50 MDA-MB-231 (72 h)
Method: as §1, §2, §4

HPAC [5] = test: 3H thymidine proliferation assay, HPAC; details: Homo sapiens, HPAC; 3H thymidine method, 72 h incubation; read-out: EC50, HPAC
Method: as §1, §2, §3

U-87 MG [6] = test: 3H thymidine proliferation assay, U-87 MG; details: Homo sapiens, U-87 MG; 3H thymidine method, 72 h incubation; read-out: EC50, U-87 MG
Method: as §1, §2, §3

HL-60 = test: 3H thymidine proliferation assay, HL-60; details: Homo sapiens, HL-60; 3H thymidine method, 72 h incubation; read-out: EC50, HL-60
Method: as §1, §2, §3

| SMILES | EC50 (LNCaP) [nM] | EC50 (Raji [1]) [nM] | EC50 (DMS53) [nM] | EC50 (SK-BR3) [nM] | EC50 (BT474) [nM] | EC50 (RPMI-8226) [nM] | EC50 (UO-31) [nM] | EC50 (HCT-15) [nM] | EC50 (786-O) [nM] | EC50 (OVCAR3) [nM] | EC50 (ZR-75) [nM] | EC50 (HPAC [2]) [nM] | EC50 (U-87 MG [3]) [nM] | EC50 (Raji [4]) [nM] | EC50 (MDA-MB-231) [nM] | EC50 (HPAC [5]) [nM] | EC50 (U-87 MG [6]) [nM] | EC50 (HL-60) [nM] |
| --- | --- | --- | --- | --- | --- | --- | --- | --- | --- | --- | --- | --- | --- | --- | --- | --- | --- | --- |
| Nc1ccc(C(=O)Nc2ccc3[nH]c(C(=O)N4C[C@@H](CCl)c5c4cc(O)c4ccccc54)cc3c2)cc1 [CBI, reference compound] | 0.051 | 0.013 | 3.8 | 3.1 | 1.2 | 0.12 | 0.035 | 3.4 | 0.035 | 0.071 | 2.2 | 6 | 3.3 | 2.1 | 3.1 | 0.063 | 0.14 | 0.027 |
| COc1cccc2c1C(=O)c1c(O)c3c(c(O)c1C2=O)C[C@@](O)(C(=O)CO)C[C@@H]3O[C@H]1C[C@H](N)[C@H](O)[C@H](C)O1 [Dox, doxorubicin, reference compound] | 130 | 61 | 755 | 441 | 424 | 68 | 267 | 600 | 168 | 258 | 236 | 215 | 324 | 301 | 518 | 126 | 106 | 56 |
